{"source": "patent US9512083B2", "about": "“Histone deacetylase 6 selective inhibitors for the treatment of bone disease” (The General Hospital Corporation, priority 2012, dated 2016)", "key": {"[1]": {"molecular_target": "T1, Sirtuin 1 (Homo sapiens, UniProt Q96EB6)", "T1 sequence (Q96EB6 1-747)": "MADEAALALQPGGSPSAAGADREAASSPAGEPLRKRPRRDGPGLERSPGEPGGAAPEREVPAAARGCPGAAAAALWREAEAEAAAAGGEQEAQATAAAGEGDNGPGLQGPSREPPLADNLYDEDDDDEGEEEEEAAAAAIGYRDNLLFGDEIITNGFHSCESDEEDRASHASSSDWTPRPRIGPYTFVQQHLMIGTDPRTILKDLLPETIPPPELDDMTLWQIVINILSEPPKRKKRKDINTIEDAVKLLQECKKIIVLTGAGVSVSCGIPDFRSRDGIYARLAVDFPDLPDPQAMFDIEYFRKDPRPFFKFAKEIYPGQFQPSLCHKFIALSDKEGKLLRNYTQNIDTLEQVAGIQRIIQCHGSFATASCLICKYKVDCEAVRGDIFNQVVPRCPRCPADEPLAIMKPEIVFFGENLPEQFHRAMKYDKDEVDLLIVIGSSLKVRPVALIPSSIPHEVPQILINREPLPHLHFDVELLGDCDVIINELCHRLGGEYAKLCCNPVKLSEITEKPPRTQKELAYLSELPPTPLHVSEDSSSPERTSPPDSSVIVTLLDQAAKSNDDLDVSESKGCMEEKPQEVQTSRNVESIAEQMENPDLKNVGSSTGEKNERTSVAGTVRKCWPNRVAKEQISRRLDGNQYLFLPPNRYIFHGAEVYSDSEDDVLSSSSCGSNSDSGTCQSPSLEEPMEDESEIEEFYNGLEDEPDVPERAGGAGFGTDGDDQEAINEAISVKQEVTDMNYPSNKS", "experiment": "HDAC enzyme assay, Sirtuin 1", "assay_type": "biochemical"}, "[2]": {"molecular_target": "T2, Sirtuin 2 (Homo sapiens, UniProt Q8IXJ6)", "T2 sequence (Q8IXJ6 1-389)": "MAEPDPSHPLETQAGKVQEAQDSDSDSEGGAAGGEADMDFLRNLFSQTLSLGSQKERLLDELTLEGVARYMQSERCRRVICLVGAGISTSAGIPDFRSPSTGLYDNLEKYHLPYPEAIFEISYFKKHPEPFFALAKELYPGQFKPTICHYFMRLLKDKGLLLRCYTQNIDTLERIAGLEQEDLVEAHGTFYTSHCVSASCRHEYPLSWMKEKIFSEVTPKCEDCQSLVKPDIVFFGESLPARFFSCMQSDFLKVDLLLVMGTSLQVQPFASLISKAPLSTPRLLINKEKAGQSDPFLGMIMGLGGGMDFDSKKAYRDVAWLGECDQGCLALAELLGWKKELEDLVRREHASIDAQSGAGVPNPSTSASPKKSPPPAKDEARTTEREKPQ", "experiment": "HDAC enzyme assay, Sirtuin 2", "assay_type": "biochemical"}, "[3]": {"test_system": "acetylated α-tubulin", "experiment": "Acetylation of α-tubulin in MM.1S cells", "assay_type": "cell-based", "conditions": "increasing doses, 18 hours"}, "[4]": {"test_system": "acetylation of lysine on Histone H3 and Histone H4", "experiment": "Acetylation of Histone H3 and H4 in MM.1S cells", "assay_type": "cell-based", "conditions": "compared to SAHA"}, "[5]": {"test_system": "ac-α-tubulin", "experiment": "Western blot of ac-α-tubulin in CD138+ MM patient cells", "assay_type": "cell-based, human", "conditions": "2 μM, 4 hours"}, "[6]": {"test_system": "ac-α-tubulin", "experiment": "Immunohistochemistry of ac-α-tubulin in CD138+ MM patient cells", "assay_type": "cell-based, human", "conditions": "treated vs control"}, "[7]": {"test_system": "acetyl-Histone H3", "experiment": "Immunohistochemistry of acetyl-Histone H3 in CD138+ MM patient cells", "assay_type": "cell-based, human", "conditions": "treated vs control"}, "[8]": {"test_system": "osteoblasts (OBLs) differentiated from BMSCs derived from MM patients", "experiment": "AlamarBlue viability assay of osteoblasts", "assay_type": "cell-based, human", "conditions": "Compound A 1 μM and/or bortezomib 2.5 nM, 10-14 and 21 days", "procedure": "Alamarblue was added to the wells to a final concentration of 10% alamar blue and the plates were incubated at […] and 5% CO2 for 1 to 4 hours. The plates were read at absorbance (OD) of 530 nm and 600 nm. The delta OD was recorded and the date were plotted as percentage of control.\nThe control (ctr) represents the OBL without any treatment. Cell viability was assessed by Alamarblue assay (a redox indicator that yields a colorimetric change and a fluorescent signal in a response to a metabolic activity) (Invitrogen, Carlsbad, Calif.). […] (FIG. 1A alarm blue after 14 days of differentiation in BMSC derived from patient 1, FIG. 1C alarm blue after 21 days of differentiation in BMSC derived from the same patient, FIG. 2A alarm blue after 14 days of differentiation in BMSC derived from patient 2, FIG. 2C alarm blue after 21 days of differentiation in BMSC derived from patient 2, FIG. 3A alarm blue after 10 days of differentiation in BMSC derived from patient 3)."}, "[9]": {"test_system": "osteoblasts (OBLs) differentiated from BMSCs derived from MM patients", "experiment": "Alkaline phosphatase (ALP) activity assay of osteoblasts", "assay_type": "cell-based, human", "conditions": "Compound A 1 μM and/or bortezomib 2.5 nM, 10-14 and 21 days", "procedure": "Following the AlamarBlue cell viability assay, the wells were then washed twice with PBS fixed for 5 minutes and washed again with distilled water and Alkaline Phosphatase Yellow (pNPP) Liquid Substrate System for ELISA (sigma-aldrich) was added to the wells. The plates were read at OD of 405 nm after 5 minutes of incubation.\n(FIG. 1B ALP after 14 days of differentiation in BMSC derived from patient 1, FIG. 1D ALP after 21 days of differentiation in BMSC derived from the same patient, FIG. 2B ALP after 14 days of differentiation in BMSC derived from patient 2, FIG. 2D ALP after 21 days of differentiation in BMSC derived from patient 2, FIG. 3B ALP after 10 days of differentiation in BMSC derived from patient 3)."}, "[10]": {"test_system": "osteoblasts (OBLs) differentiated from BMSCs derived from MM patients", "experiment": "Alizarin red staining of calcium deposits in osteoblasts", "assay_type": "cell-based, human", "conditions": "OBLs differentiated in presence of Compound A and/or bortezomib, 23 days", "from_the_text": "To evaluate calcium deposition, osteoblasts were washed with PBS and fixed after 23 days of treatment and assayed by alizarin red staining (Alizarin red solution, Millipore) that specifically stains mineralization area. The mineralization areas were visualized using Nikon Labophot-2 microscope with 10×/0.25 lens equipped with SPOT-insight QE camera.\nThe results shown in FIG. 4A “CTR alpha-mem” represent the BMSCs that have not been differentiated in OBL. The results shown in FIG. 4B “CRT OBL medium” represent the OBL without any treatment."}, "[11]": {"test_system": "osteoclasts (OCLs) differentiated from PBMCs from MM patients", "experiment": "Osteoclastogenesis, TRAP staining", "assay_type": "cell-based, human"}, "[12]": {"test_system": "osteoclasts differentiated from MM patient bone marrow", "experiment": "PIT formation assay (bone resorption)", "assay_type": "cell-based, human", "conditions": "Compound A 1 μM and/or bortezomib 2.5 nM, 7 days", "procedure": "OC activity was assayed by bone resorption enumerating resorption pits. Briefly, mononuclear cells (1.8×10^6 cell/well) from MM patient bone marrow were cultured in a 24-well plate coated with a synthetic carbonate apatite (CaP) (Cosmo Bio Co., Ltd, Tokio, Japan) and stimulated with RANKL (25 ng/ml) and M-CSF (25 ng/ml). […] On day 7 the conditioned medium was removed from each well and the wells were treated with 5% sodium hypochlorite for five minutes. After washing and drying, resorption pits were photographed by light microscopy and quantified by Image J software. Each pit area assay was performed at least 3 times with BM from different donors."}, "[13]": {"test_system": "pERK, pAkt, c-fos in OCLs", "experiment": "Immunoblot of signaling pathway in OCLs", "assay_type": "cell-based, human", "conditions": "OCLs differentiated 10 days, treated with Compound A and or bortezomib 24 hours", "from_the_text": "Samples were then subjected to sodium dodecyl sulfate-polyacrylamide gel electrophoresis, transferred to PVDF membrane, and immunoblotted with antibodies against pAkt, Akt, and c-fos (Cell Signaling Technology, Beverly, Mass.) or phosphorylated extracellular signal-regulated kinase (pERK). Antigen-antibody complexes were detected by enhanced chemiluminescence (Amersham, Arlington Heights, Ill.). The membrane was stripped and reprobed with antitubulin antibody to ensure equal protein loading. Films were scanned and densitometric analysis performed."}}, "note": "Entries after “also recorded” stand apart in the source; their conditions may differ.", "data": [{"compound": "O=C(CCCCCCNC(=O)c1cnc(N(c2ccccc2)c2ccccc2)nc1)NO", "note": "[Compound A, 2-(diphenylamino)-N-(7-(hydroxyamino)-7-oxoheptyl)pyrimidine-5-carboxamide]", "values": [{"measurement": "IC50", "setting": "[1]; Sirtuin 1", "value": "> 10", "unit": "µM"}, {"measurement": "IC50", "setting": "[1]; sirtuin 1, text (minimal activity)", "value": "> 1", "unit": "µM"}, {"measurement": "IC50", "setting": "[2]; Sirtuin 2", "value": "> 10", "unit": "µM"}, {"measurement": "IC50", "setting": "[2]; sirtuin 2, text (minimal activity)", "value": "> 1", "unit": "µM"}, {"measurement": "acetylated α-tubulin", "setting": "[3]", "value": "dose dependent significant increase in the acetylated α-tubulin was observed even in the presence of low doses (0.04 μM)"}, {"measurement": "acetylation of lysine on Histone H3 and Histone H4", "setting": "[4]", "value": "less potent acetylation of lysine on Histone H3 and Histone H4 compared to SAHA"}, {"measurement": "ac-α-tubulin, Western blot", "setting": "[5]", "value": "significant increase of ac-α-tubulin in treated compared to control cells"}, {"measurement": "ac-α-tubulin, immunohistochemistry (IHC)", "setting": "[6]", "value": "significant increase of ac-α-tubulin was observed in treated compared to control cells"}, {"measurement": "acetyl-Histone H3, immunohistochemistry (IHC)", "setting": "[7]", "value": "without any significant increase in acetyl-Histone H3"}, {"measurement": "viability of OBLs (AlamarBlue)", "setting": "[8]", "value": "does not induce cytotoxicity on OBL cells; also recorded: does not affect the viability of osteoblasts (OBLs)"}, {"measurement": "OBLs function (alkaline phosphatase (ALP) activity)", "setting": "[9]", "value": "increases OBLs function; also recorded: increases the alkaline phosphate activity"}, {"measurement": "calcium deposits (Alizarin red staining)", "setting": "[10]", "value": "increases calcium deposits in OBL cells"}, {"measurement": "number of OCLs (multinucleated TRAP-positive cells) per well", "setting": "[11]; compared with bortezomib or untreated control wells, 7 and 14 days", "value": "significantly decreases the number of OCLs; also recorded: inhibits osteoclastogenesis"}, {"measurement": "number of OCLs (multinucleated TRAP-positive cells) per well, dose dependence", "setting": "[11]; days 7 and 14 of osteoclast differentiation", "value": "decreases the number of OCLs (multinucleated TRAP-positive cells) per well in a dose dependent manner; also recorded: inhibits osteoclastogenesis in a dose-dependent manner"}, {"measurement": "PIT formation (resorption pits)", "setting": "[12]", "value": "significantly arrested PIT formation"}, {"measurement": "pERK, pAkt and c-fos expression (immunoblot)", "setting": "[13]", "value": "downregulation of pERK, pEKT and cFOS expression"}]}]}
